Values quoted from earlier work, collected in paper PMC9318694 (Molecules, 2022).
Where a name gives a salt, the structure may show the parent alone. Read-outs that look alike come from different tables or passages of the source.

Molecular target: D2R (Homo sapiens, UniProt P14416)
Details: cited from earlier work
[1] = Table S1, data set of actives, radio-ligand binding assays, ref ChEMBL, [50]-[70], read-out: KI
[2] = Table S2, data set of inactives, radio-ligand binding (RLB) assays, ref ChEMBL, [71]-[92], read-out: KI

Sequence of D2R (P14416 whole entry): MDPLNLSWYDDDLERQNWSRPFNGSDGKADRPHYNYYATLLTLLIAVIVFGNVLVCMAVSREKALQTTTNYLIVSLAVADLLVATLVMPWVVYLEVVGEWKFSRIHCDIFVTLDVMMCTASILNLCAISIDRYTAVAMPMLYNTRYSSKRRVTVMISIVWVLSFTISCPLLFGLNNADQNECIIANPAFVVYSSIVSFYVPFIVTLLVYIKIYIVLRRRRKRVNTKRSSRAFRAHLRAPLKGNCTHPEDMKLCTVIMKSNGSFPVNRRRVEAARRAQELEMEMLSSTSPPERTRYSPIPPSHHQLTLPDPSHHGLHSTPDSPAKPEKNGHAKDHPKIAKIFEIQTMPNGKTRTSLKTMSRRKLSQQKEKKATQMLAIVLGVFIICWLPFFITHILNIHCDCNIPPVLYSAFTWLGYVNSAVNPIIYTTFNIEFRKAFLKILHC

Structure (SMILES) | Ki [1] | Ki [2] | further results
C#CC1=CC[C@H](N(CCC)CCCCNC(=O)c2cc3ccccn3n2)CC1 [SC12, (R)-N-(4-((4-ethynylcyclohex-3-en-1-yl)(propyl)amino)butyl)pyrazolo[1,5-a]pyridine-2-carboxamide] |  |  | Ki (read-out: KI): 0.0055 µM
C=CCN1C[C@H](C(=O)N(CCCN(C)C)C(=O)NCC)C[C@@H]2c3cccc4[nH]cc(c34)C[C@H]21 [Compound 3, Cabergoline] | 0.0007 µM |  | 
COc1cccc(CCc2ccccc2OCCCCCN2CCN(C)CC2)c1 [SC111, 1-[5-[2-[2-(3-methoxyphenyl)ethyl]phenoxy]pentyl]-4-methylpiperazine] |  | > 1000 µM | 
CC(C)(C)OC(=O)NCCCCCN1CCN(c2cccc(Cl)c2Cl)CC1 [SC28, tert-butyl (5-(4-(2,3-dichlorophenyl)piperazin-1-yl)pentyl)carbamate] | 0.0426 µM |  | 
COc1cccc(CCc2ccccc2OCCCCCN2CCN(c3ncccn3)CC2)c1 [SC118, 2-[4-[5-[2-[2-(3-methoxyphenyl)ethyl]phenoxy]pentyl]piperazin-1-yl]pyrimidine] |  | > 1000 µM | 
COc1cccc(CCc2ccccc2OCCN2CCN(c3cccc(C(F)(F)F)c3)CC2)c1 [SC104, 1-[2-[2-[2-(3-methoxyphenyl)ethyl]phenoxy]ethyl]-4-[3-(trifluoromethyl)phenyl]piperazine] |  | > 1000 µM | 
COc1cccc(CCc2ccccc2OCCCCCN2CCc3cc(OC)c(OC)cc3C2)c1 [SC125, 6,7-dimethoxy-2-[5-[2-[2-(3-methoxyphenyl)ethyl]phenoxy]pentyl]-3,4-dihydro-1H-isoquinoline] |  | > 1000 µM | 
CCCNCCCCNC(=O)c1ccc(-c2ccccc2)cc1 [SC99, 4-phenyl-N-[4-(propylamino)butyl]benzamide] |  | > 100 µM | 
Clc1cccc(N2CCN(CCCOc3ccc4scnc4c3)CC2)c1Cl [SC8, 5-(3-(4-(2,3-dichlorophenyl)piperazin-1-yl)propoxy)benzo[d]thiazole] | 0.03 µM |  | 
Clc1ccc(N2CCN(CCCCNc3noc(-c4ccccc4)n3)CC2)cc1 [SC62, N-[4-[4-(4-chlorophenyl)piperazin-1-yl]butyl]-5-phenyl-1,2,4-oxadiazol-3-amine;hydrochloride] |  | 79 µM | 
O=c1ccc2c(N3CCCN(CCCCOc4ccn5nccc5c4)CC3)ccc(O)c2[nH]1 [SC46, 8-hydroxy-5-(4-(4-(pyrazolo[1,5-a]pyridin-5-yloxy)butyl)-1,4-diazepan-1-yl)quinolin-2(1H)-one] | 0.078 µM |  | 
CCCN(CCCCNC(=O)c1ccc(OCCCc2cn(CCCCCCCCn3cc(CCCOc4ccc(C(=O)NCCCCN(CCC)C5Cc6ccccc6C5)cc4OC)nn3)nn2)c(OC)c1)C1Cc2ccccc2C1 [SC2, 4,4'-(((octane-1,8-diylbis(1H-1,2,3-triazole-1,4-diyl))bis(propane-3,1-diyl))bis(oxy))bis(N-(4-((2,3-dihydro-1H-inden-2-yl)(propyl)amino)butyl)-3-methoxybenzamide)] | 0.016 µM |  | 
COc1cc2c(cc1OC)CN(C=Nc1ccc3c(c1)C1SCCSC1C3)CC2 (stereo not drawn) [SC63, N-(3,4a,9,9a-tetrahydro-2H-indeno[1,2-b][1,4]dithiin-6-yl)-1-(6,7-dimethoxy-3,4-dihydro-1H-isoquinolin-2-yl)methanimine] |  | > 100 µM | 
Cc1cc(C)c2c(N)c(C(=O)NCCCCCN3CCN(c4cccc(Cl)c4Cl)CC3)sc2n1 [SC29, 3-amino-N-(5-(4-(2,3-dichlorophenyl)piperazin-1-yl)pentyl)-4,6-dimethylthieno[2,3-b]pyridine-2-carboxamide] | 0.0112 µM |  | 
CCCCn1cc(CCCOc2ccc(C(=O)NCCCCN(CCC)[C@H]3CCc4c(O)cccc4C3)cc2OC)nn1 [SC37, (S)-4-(3-(1-butyl-1H-1,2,3-triazol-4-yl)propoxy)-N-(4-((5-hydroxy-1,2,3,4-tetrahydronaphthalen-2-yl)(propyl)amino)butyl)-3-methoxybenzamide] | 0.00047 µM |  | 
c1cc2c3c(c[nH]c3c1)CC1CN(CC3CCCCC3)CCN21 (stereo not drawn) [SC26, 8-(cyclohexylmethyl)-6,6a,7,8,9,10-hexahydro-4H-pyrazino[1,2-a]pyrrolo[4,3,2-de]quinoline] | 0.0537 µM |  | 
O=C1CCc2ccc(OCCCCN3CCCN(c4ccc(O)c5[nH]c(=O)ccc45)CC3)cc2N1 [SC52, 8-hydroxy-5-(4-(4-((2-oxo-1,2,3,4-tetrahydroquinolin-7-yl)oxy)butyl)-1,4-diazepan-1-yl)quinolin-2(1H)-one] | 0.0016 µM |  | Ki (active data set, ref ChEMBL, read-out: KI / binding affinity): < 0.002 µM
COc1ccccc1N1CCN(CCCCCNC(=O)c2sc3nc(OC)c(Cl)c(C)c3c2N)CC1 [SC27, 3-amino-5-chloro-6-methoxy-N-(5-(4-(2-methoxyphenyl)piperazin-1-yl)pentyl)-4-methylthieno[2,3-b]pyridine-2-carboxamide] | 0.0035 µM |  | 
Clc1cccc(C2CCN(CCCCOc3ccc4scnc4c3)CC2)c1Cl [SC6, 5-(4-(4-(2,3-dichlorophenyl)piperidin-1-yl)butoxy)benzo[d]thiazole] |  |  | Ki (read-out: KI): 0.042 µM
CCCCn1cc(CCCOc2ccc(C(=O)NCCCCN(CCC)CCc3ccc(O)c4[nH]c(=O)ccc34)cc2OC)nn1 [SC36, 4-(3-(1-butyl-1H-1,2,3-triazol-4-yl)propoxy)-N-(4-((2-(8-hydroxy-2-oxo-1,2-dihydroquinolin-5-yl)ethyl)(propyl)amino)butyl)-3-methoxybenzamide] | 0.024 µM |  | 
Oc1ccc2c(c1)O[C@@H](CNCc1ccc(OCCCCF)cc1)CC2 [SC22, (R)-2-(((4-(4-fluorobutoxy)benzyl)amino)methyl)chroman-7-ol] | 0.0056 µM |  | 

Structure (SMILES) | Ki [1] | Ki [2] | further results
COc1cc2c(cc1OC)CN(C=Nc1ccc3c(c1)C1SCCSC1CC3)CC2 (stereo not drawn) [SC66, N-(2,3,4a,5,6,10b-hexahydrobenzo[f][1,4]benzodithiin-9-yl)-1-(6,7-dimethoxy-3,4-dihydro-1H-isoquinolin-2-yl)methanimine] |  | > 100 µM | 
C#CC1=CC[C@H](N(CCC)CCCCNC(=O)c2cnn3ccccc23)CC1 [SC13, (R)-N-(4-((4-ethynylcyclohex-3-en-1-yl)(propyl)amino)butyl)pyrazolo[1,5-a]pyridine-3-carboxamide] |  |  | Ki (read-out: KI): 0.0011 µM
COc1cccc(CCc2ccccc2OCCN2CCc3ccccc3C2)c1 [SC126, 2-[2-[2-[2-(3-methoxyphenyl)ethyl]phenoxy]ethyl]-3,4-dihydro-1H-isoquinoline] |  |  | Ki (read-out: KI): > 1000 µM
CCCN(CCC)[C@@H]1Cc2cccc3c2n(c(=O)n3CCC)C1 [SC38, (R)-5-(dipropylamino)-1-propyl-5,6-dihydro-4H-imidazo[4,5,1-ij]quinolin-2(1H)-one] | 0.00259 µM |  | 
COc1ccc2[nH]c3c(c2c1)CCN=C3c1cc([N+](=O)[O-])cn1C [SC65, 6-methoxy-1-(1-methyl-4-nitropyrrol-2-yl)-4,9-dihydro-3H-pyrido[3,4-b]indole] |  | 200 µM | 
OC1CCc2ccc(N=CN3CCc4ccccc4C3)cc21 (stereo not drawn) [Compound S68, 6-(3,4-dihydro-1H-isoquinolin-2-ylmethylideneamino)-2,3-dihydro-1H-inden-1-ol] |  | > 300 µM | 
COc1cccc(CCc2ccccc2OCCCCN2CCN(c3cccc(C(F)(F)F)c3)CC2)c1 [SC110, 1-[4-[2-[2-(3-methoxyphenyl)ethyl]phenoxy]butyl]-4-[3-(trifluoromethyl)phenyl]piperazine] |  | > 1000 µM | 
N#CC(C#N)=Cc1ccc(CN2CCN(c3ccccc3)CC2)[nH]1 [SC71, 2-[[5-[(4-phenylpiperazin-1-yl)methyl]-1H-pyrrol-2-yl]methylidene]propanedinitrile] |  | > 100 µM | 
Oc1ccc2c(c1)O[C@@H](CNCc1cccc(I)c1)CC2 [SC21, (R)-2-(((3-iodobenzyl)amino)methyl)chroman-7-ol] | 0.00206 µM |  | 
NC(=O)C[S@@+]([O-])C(c1ccccc1)c1ccccc1 [SC72, 2-[(R)-benzhydrylsulfinyl]acetamide] |  |  | Ki: > 100 µM
COc1cccc(CCc2ccccc2OCCN2CCN(c3ncccn3)CC2)c1 [SC101, 2-[4-[2-[2-[2-(3-methoxyphenyl)ethyl]phenoxy]ethyl]piperazin-1-yl]pyrimidine] |  | 629 µM | 
COc1cccc(CCc2ccccc2OCCN2CCN(c3cccc(Cl)c3)CC2)c1 [SC121, 1-(3-chlorophenyl)-4-[2-[2-[2-(3-methoxyphenyl)ethyl]phenoxy]ethyl]piperazine] |  | > 1000 µM | 
COc1cc2c(cc1OC)CN(C=Nc1ccc3c(c1)C(O)CC3)CC2 (stereo not drawn) [SC67, 6-[(6,7-dimethoxy-3,4-dihydro-1H-isoquinolin-2-yl)methylideneamino]-2,3-dihydro-1H-inden-1-ol] |  | > 300 µM | 
COc1cccc(CCc2ccccc2OCCCCN2CCN(c3ccc(F)cc3)CC2)c1 [SC100, 1-(4-fluorophenyl)-4-[4-[2-[2-(3-methoxyphenyl)ethyl]phenoxy]butyl]piperazine] |  | 1320 µM | 
C#CC1=CC[C@H](N(CCC)CCCCNC(=O)c2cc3ccccc3s2)CC1 [SC15, (R)-N-(4-((4-ethynylcyclohex-3-en-1-yl)(propyl)amino)butyl)benzo[b]thiophene-2-carboxamide] | 0.0031 µM |  | 
COc1cccc(CCc2ccccc2OCCCN2CCN(C)CC2)c1 [SC123, 1-[3-[2-[2-(3-methoxyphenyl)ethyl]phenoxy]propyl]-4-methylpiperazine] |  | 565 µM | 
COc1cccc(CCc2ccccc2OCCCCCN2CCc3ccccc3C2)c1 [SC124, 2-[5-[2-[2-(3-methoxyphenyl)ethyl]phenoxy]pentyl]-3,4-dihydro-1H-isoquinoline] |  | > 1000 µM | 
COc1cccc(CCc2ccccc2OCCCN2CCN(c3cccc(Cl)c3)CC2)c1 [SC107, 1-(3-chlorophenyl)-4-[3-[2-[2-(3-methoxyphenyl)ethyl]phenoxy]propyl]piperazine] |  | 298 µM | 
COc1cccc(CCc2ccccc2OCCCN2CCN(c3ccc(F)cc3)CC2)c1 [SC106, 1-(4-fluorophenyl)-4-[3-[2-[2-(3-methoxyphenyl)ethyl]phenoxy]propyl]piperazine] |  | 655 µM | 
CCCN(CCC)[C@@H]1Cc2cccc3c2n(c(=O)n3CCCCNC(=O)c2cc3ccccc3[nH]2)C1 [SC43, (R)-N-(4-(5-(dipropylamino)-2-oxo-5,6-dihydro-4H-imidazo[4,5,1-ij]quinolin-1(2H)-yl)butyl)-1H-indole-2-carboxamide] |  |  | Ki (read-out: KI): 0.0868 µM
